Measurements from PMC6543911, “Discovery of Coumarin as Microtubule Affinity-Regulating Kinase 4 Inhibitor That Sensitize Hepatocellular Carcinoma to Paclitaxel” (Frontiers in Chemistry, 2019).

Assays:
MARK4 catalytic domain = molecular target: T1, MARK4 catalytic domain (Homo sapiens, UniProt Q96L34); test: Kinase activity assay (ADP-Glo) using MARK4 as enzyme; type: biochemical; settings: MARK4 5 nM, 100 μM ATP, 5 μM MAP4, 30 min; duplicate, means ± SEM
T1 construct: The recombinant MARK4 catalytic domain was used as kinase; made in house; host or cells: E. coli BL21 (DE3)
Method: MARK4 catalytic domain sequence was subcloned into pET-28a vector. Protein expression in E. coli. BL21 (DE3) was induced by IPTG overnight at 16°C, and the cells were then pelleted by centrifugation at 4,000 rpm for 15 min and resuspended in 20 mL buffer (20 mM Tris-HCl, 150 mM NaCl, 25 mM imidazole pH 8.0). Proteins were purified by nickel-affinity chromatography followed by thrombin cleavage. The proteins were further purified by size-exclusion chromatography using a Superdex 75 column (GE Healthcare).
The kinase activity of MARK4 was measured via ADP-Glo™ kinase assay kit (Promega, USA) under manufacturer's instruction. The recombinant MARK4 catalytic domain was used as kinase. MARK4 (5 nM) activity was tested in a reaction (10 μL) containing 25 mM Tris (pH 7.6), 10 mM MgCl2, 150 mM NaCl, 1 mM EDTA, 1 mM DTT, 100 μM ATP, 5 μM MAP4 and varied concentrations of samples for 30 min. The reaction progress was monitored on Thermo Scientific Varioskan Flash Multimode Reader. Each data point was collected in duplicate and kinetic parameters were obtained using GraphPad Prism v6.0 software.

HepG2 cells [1] = test: Cell viability assay (MTT) in HepG2 cells; type: cell-based
Method: HepG2 and SMMC-7721 cells were cultured in DMEM medium (Gibco) supplemented with 10% FBS (Gibco, USA). For transient transfection, cells were transfected with DNA by Lipofectamine 2000 (Thermo fisher, USA).
HCC cells (100 μL/each well, 20,000 cells/mL) were seeded in a 96-well culture plate and allowed to grow for 24 h in DMEM medium supplemented with 10% FBS and 1% penicillin/streptomycin sulfate. The cells were then treated with drugs or vehicle control and incubated in a 5% CO2 incubator for indicated time. At the end of incubation, 10 μL of MTT stock solution (5 mg/mL) was added into each well. The plate was continued to be incubated at 37°C for 4 h before the medium was removed. Then, DMSO (100 μL) was added into each well, followed by thorough shaking. The absorbance of the formazan product was measured at 570 nm on Thermo Scientific Varioskan Flash Multimode Reader. The IC50 value was obtained by fitting dose-response data to a three parametric non-linear regression model using GraphPad Prism 6.0 software.

HepG2 cells [2] = test: Cell apoptosis assay (Annexin V-FITC/PI flow cytometry) in HepG2 cells; type: cell-based; settings: 2.5 μM alone
Method: HCC cells (2 × 10^5 cells/well) were plated in a 6-well plate and treated with samples at 37°C for 36 h. After incubation, the cells were harvested and washed with ice-cold PBS. Annexin V-FITC-PI apoptosis detection kit (Abcam, USA) was used for a direct observation of viable, early apoptotic, and late apoptotic cells. Annexin V-FITC and propidium iodide were added according to the manufacturer's instructions, and the samples were incubated in the dark for 15 min. The apoptosis ratio was analyzed using BD FACSCalibur flow cytometry.

T1 sequence (Q96L34 59-310 limits assumed): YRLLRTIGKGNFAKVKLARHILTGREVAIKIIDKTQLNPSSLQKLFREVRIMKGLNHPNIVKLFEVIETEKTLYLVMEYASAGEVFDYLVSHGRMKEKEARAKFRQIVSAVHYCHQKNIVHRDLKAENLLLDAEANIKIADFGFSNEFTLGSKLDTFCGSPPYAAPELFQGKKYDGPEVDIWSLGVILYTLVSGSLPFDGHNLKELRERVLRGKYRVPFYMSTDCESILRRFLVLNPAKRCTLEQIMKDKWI

IC50 (MARK4 catalytic domain) | SMILES | other results
7.8 µM | COc1cccc(-c2cc3cc(Cl)cc(Cl)c3oc2=O)c1 [6,8-dichloro-3-(3-methoxyphenyl)-2H-chromen-2-one] | IC50 (HepG2 cells [1]; Homo sapiens, HepG2 cells, MTT): 15.9 µM
> 50 µM | COc1cccc2ccc(=O)oc12 [Compound 1] | 
> 50 µM | O=c1ccc2cc(Cl)ccc2o1 [Compound 2] | 
> 50 µM | O=c1ccc2cc(Cl)cc(Cl)c2o1 [Compound 3] | 
41 ± 5.4 µM | O=c1ccc2ccccc2o1 [Compound 4] | 
35 ± 3.73 µM | COc1ccc2oc(=O)ccc2c1 [Compound 5] | 
> 50 µM | Cc1ccc2oc(=O)ccc2c1 [Compound 6] | 
> 50 µM | CCOc1cccc2ccc(=O)oc12 [Compound 7] | 
37.9 ± 3.45 µM | O=c1ccc2cc([N+](=O)[O-])ccc2o1 [Compound 8] | 
> 50 µM | CC(C)(C)c1cc(C(C)(C)C)c2oc(=O)ccc2c1 [Compound 9] | 
25.1 ± 5.81 µM | COc1ccc2ccc(=O)oc2c1 [Compound 10] | 
29.7 ± 4.21 µM | COc1ccc(-c2cc3cccc(OC)c3oc2=O)cc1OC [Compound 11] | 
22.8 ± 4.61 µM | COc1ccc(-c2cc3cccc(OC)c3oc2=O)cc1 [Compound 12] | 
8.98 ± 2.74 µM | COc1cccc(-c2cc3cccc(OC)c3oc2=O)c1 [Compound 13] | 
34.5 ± 3.3 µM | COc1cc(-c2cc3cccc(OC)c3oc2=O)cc(OC)c1OC [Compound 14] | 
31.5 ± 2.28 µM | COc1cccc2cc(-c3ccccc3)c(=O)oc12 [Compound 15] | 
> 50 µM | COc1cccc2cc(-c3ccc(Cl)cc3)c(=O)oc12 [Compound 16] | 
> 50 µM | COc1cccc2cc(-c3ccc(F)cc3)c(=O)oc12 [Compound 17] | 
31 ± 2.81 µM | COc1ccc(-c2cc3cc(Cl)ccc3oc2=O)cc1OC [Compound 18] | 
27 ± 2.38 µM | COc1ccc(-c2cc3cc(Cl)ccc3oc2=O)cc1 [Compound 19] | 
> 50 µM | COc1ccccc1-c1cc2cc(Cl)ccc2oc1=O [Compound 20] | 
25.5 ± 1.01 µM | COc1cc(-c2cc3cc(Cl)ccc3oc2=O)cc(OC)c1OC [Compound 21] | 
28 ± 2.01 µM | O=c1oc2ccc(Cl)cc2cc1-c1ccc(Cl)cc1 [Compound 22] | 

IC50 (MARK4 catalytic domain) | SMILES | other results
17.4 ± 2.69 µM | COc1ccc(-c2cc3cc(Cl)cc(Cl)c3oc2=O)cc1OC [Compound 23] | 
10 ± 3.65 µM | COc1ccc(-c2cc3cc(Cl)cc(Cl)c3oc2=O)cc1 [Compound 24] | 
7.76 ± 2.93 µM | COc1cccc(-c2cc3cc(Cl)cc(Cl)c3oc2=O)c1 [Compound 25] | 
> 50 µM | COc1ccccc1-c1cc2cc(Cl)cc(Cl)c2oc1=O [Compound 26] | 
42.1 ± 3.99 µM | O=c1oc2c(Cl)cc(Cl)cc2cc1-c1ccccc1 [Compound 27] | 
> 50 µM | COc1ccc(-c2cc3ccccc3oc2=O)cc1OC [Compound 28] | 
37.4 ± 2.84 µM | COc1ccc(-c2cc3ccccc3oc2=O)cc1 [Compound 29] | 
39.3 ± 3.12 µM | COc1cccc(-c2cc3ccccc3oc2=O)c1 [Compound 30] | 
35 ± 5.78 µM | O=c1oc2ccccc2cc1-c1ccccc1 [Compound 31] | 
37.7 ± 6.07 µM | O=c1oc2ccccc2cc1-c1ccc(F)cc1 [Compound 32] | 
46.3 ± 3.04 µM | COc1ccc(-c2cc3cc(Br)cc(OC)c3oc2=O)cc1OC [Compound 33] | 
> 50 µM | COc1ccc(-c2cc3cc(Br)cc(OC)c3oc2=O)cc1 [Compound 34] | 
12.8 ± 1.25 µM | COc1cccc(-c2cc3cc(Br)cc(OC)c3oc2=O)c1 [Compound 35] | 
33.6 ± 2.75 µM | COc1cc(-c2cc3cc(Br)cc(OC)c3oc2=O)c(OC)c(OC)c1OC [Compound 36] | 
37.8 ± 5.43 µM | COc1cc(-c2cc3cc(Br)cc(OC)c3oc2=O)cc(OC)c1OC [Compound 37] | 
40.9 ± 4.04 µM | COc1cc(Br)cc2cc(-c3ccccc3)c(=O)oc12 [Compound 38] | 
16.9 ± 4.26 µM | COc1cc(Br)cc2cc(-c3ccc(Cl)cc3)c(=O)oc12 [Compound 39] | 
38.8 ± 4.83 µM | COc1cc(Br)cc2cc(-c3ccc(F)cc3)c(=O)oc12 [Compound 40] | 
> 50 µM | COc1cc(Br)cc2cc(-c3cccc(OC(C)=O)c3)c(=O)oc12 [Compound 41] | 
> 50 µM | COc1cc(Br)cc2cc(-c3ccc(OC(C)=O)cc3)c(=O)oc12 [Compound 42] | 
> 50 µM | COc1ccc(OC)c(-c2cc3cc(Br)cc(OC)c3oc2=O)c1 [Compound 43] | 
> 50 µM | COc1cc(Br)cc2cc(-c3cccnc3)c(=O)oc12 [Compound 44] | 
> 50 µM | COc1cc(Br)cc2cc(-c3cccc(O)c3)c(=O)oc12 [Compound 45] | 

IC50 (MARK4 catalytic domain) | SMILES | other results
> 50 µM | COc1cc(Br)cc2cc(-c3ccc(O)cc3)c(=O)oc12 [Compound 46] | 
14.6 ± 2.99 µM | COc1cccc2cc(C(C)=O)c(=O)oc12 [Compound 47] | 
2.1 ± 0.372 µM | COc1cccc2cc(C(=O)c3ccccc3)c(=O)oc12 [Compound 48] | 
4.12 ± 0.605 µM | O=C(c1ccccc1)c1cc2cc(Cl)ccc2oc1=O [Compound 49] | 
25.9 ± 2.73 µM | CC(=O)c1cc2ccccc2oc1=O [Compound 51] | 
27 ± 3.65 µM | O=C(c1ccccc1)c1cc2ccccc2oc1=O [Compound 52] | 
25 ± 2.4 µM | CC(C)(C)C(=O)c1cc2ccccc2oc1=O [Compound 53] | 
21.3 ± 2 µM | O=C(c1ccccc1)c1cc2c(ccc3ccccc32)oc1=O [Compound 54] | 
> 50 µM | COc1ccc2c(C)cc(=O)oc2c1 [Compound 55] | 
> 50 µM | Cc1cc(=O)oc2cc(O)cc(O)c12 [Compound 56] | 
> 50 µM | O=c1cc(-c2ccccc2)c2c(O)cc(O)cc2o1 [Compound 57] | 
> 50 µM | COc1cc(OC)c2c(C)cc(=O)oc2c1 [Compound 58] | 
> 50 µM | Cc1cc(=O)oc2cc(OCc3ccccc3)cc(OCc3ccccc3)c12 [Compound 59] | 
> 50 µM | COc1cc(OC)c2c(-c3ccccc3)cc(=O)oc2c1 [Compound 60] | 
> 50 µM | O=c1cc(-c2ccccc2)c2c(OCc3ccccc3)cc(OCc3ccccc3)cc2o1 [Compound 61] | 
> 50 µM | O=c1cc(OCc2ccccc2)c2ccccc2o1 [Compound 63] | 
40.4 ± 2.87 µM | COc1cc(=O)oc2ccccc12 [Compound 64] | 
36.1 ± 1.65 µM | O=c1sc2ccccc2cc1-c1ccccc1 [Compound 65] | 
35.6 ± 3.9 µM | COc1ccc(-c2cc3ccccc3sc2=O)cc1 [Compound 66, 3-(4-Methoxyphenyl)-2H-thiochromen-2-one] | 
11.1 ± 0.786 µM | COc1ccc(-c2cc3ccccc3sc2=O)cc1OC [Compound 67, 3-(3,4-Dimethoxyphenyl)-2H-thiochromen-2-one] | 
32.2 ± 2.75 µM | O=c1sc2ccccc2cc1-c1ccc(F)cc1 [Compound 68, 3-(4-Fluorophenyl)-2H-thiochromen-2-one] | 
 | CC(=O)O[C@H]1C(=O)[C@@]2(C)[C@H]([C@H](OC(=O)c3ccccc3)[C@]3(O)C[C@H](OC(=O)[C@H](O)[C@@H](NC(=O)c4ccccc4)c4ccccc4)C(C)=C1C3(C)C)[C@]1(OC(C)=O)CO[C@@H]1C[C@@H]2O [paclitaxel] | apoptosis, single agent (HepG2 cells [2]): unable to trigger distinct apoptosis; sensitivity in MARK4-knockdown cells (HepG2 cells [1]; HepG2 cells transiently transfected with MARK4-knockdown vs control vectors): increased sensitivity

SMILES | IC50 (MARK4 catalytic domain) | other results
O=c1cc(O)c2ccccc2o1 [Compound 62] | > 50 µM | 
